These compounds were tested against G12C K-Ras4B (1-169) (Homo sapiens (Human), UniProt P01116, G12C) (assay: Test of compounds on whether to bind to KRASG12C (LC-MS compound binding rate)). Settings: final compound concentration of 2 μM, 1 μM protein, 25° C. for 2 hours.
Experimental: Test compounds were prepared in the form of a 10 mM DMSO solution.
K-Ras4B (1-169) and G12C K-Ras4B (1-169) proteins were mixed and diluted with a buffer (1×TBS, 0.1 mM TCEP) to prepare individual 1 μM protein solutions. A 10 mM test compound was diluted tenfold with DMSO to make a 1 mM solution, and then diluted fivefold with DMSO to make a 200 μM solution. The 200 μM solution was further diluted fivefold to make a 40 μM solution. When the final compound concentration was 10 μM, 1 μL of a 200 μM test compound was added to 19 μL of a 1 μM protein solution. When the final compound concentration was 2 μM, 1 μL of a 40 μM test compound was added to 19 μL of a 1 μM protein solution. The mixtures were stored in an incubator at 25° C. for 2 hours, and 80 μL of a 1×TBS solution containing 0.2% formic acid was added thereto to end the reaction, followed by LC-MS measurement. LC-MS measurement was performed using Xevo G2-S Q-Tof manufactured by Waters, and reverse-phase chromatography was performed with a desalting column. A mass spectrum of positive ions was obtained by electrospray. For a mass spectrum, a spectrum of a polyvalent ion was collectively converted to a molecular weight by using OpenLynx software by the MaxEnt technique, and a compound binding rate was obtained from the ratio of a signal intensity that corresponds to the molecular weight of a protein to a signal intensity that corresponds to the molecular weight of a compound binding to the protein.
By obtaining the compound binding rate for K-Ras4B (1-169) and the compound binding rate for G12C K-Ras4B (1-169) at the same time, information of the selectivity for G12C K-Ras4B (1-169) was obtained at the same time.
The test compounds were measured at their final compound concentration of 2 μM. […] Almost no compounds of the present invention binded to K-Ras4B (1-169). The “binding rate” (%) for each of K-Ras4B (1-169) and G12C K-Ras4B (1-169) refers to the ratio of the signal intensity of binded forms to the sum of the signal intensity of non-binded forms and the signal intensity of binded forms.

G12C K-Ras4B (1-169), sequence (P01116 other isoform, or with tags, fused parts or gaps G12C): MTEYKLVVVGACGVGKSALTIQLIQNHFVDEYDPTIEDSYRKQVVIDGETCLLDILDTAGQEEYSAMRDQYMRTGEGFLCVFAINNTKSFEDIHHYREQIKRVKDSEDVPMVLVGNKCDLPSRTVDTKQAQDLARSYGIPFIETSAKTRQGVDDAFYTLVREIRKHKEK

| SMILES | binding rate for G12C K-Ras4B (1-169) |
| --- | --- |
| C=CC(=O)N1CC(NC(=O)c2c(C)nc(CNc3n[nH]c4cc(Cl)c(C(C)(C)C)cc34)n2C)C(F)(F)C1 (stereo not drawn) [Example 53, N-(1-acryloyl-4,4-difluoropyrrolidin-3-yl)-2-(((5-(tert-butyl)-6-chloro-1H-indazol-3-yl)amino)methyl)-1,4-dimethyl-1H-imidazole-5-carboxamide] | B (a binding rate of 60% or more and less than 80% is rated “B,”) |
| [2H]C([2H])(Nc1n[nH]c2cc(Cl)c(C(C)(C)C)cc12)c1nc(C)c(C(=O)NC2CN(C(=O)C=C)C2)n1C [Example 5, N-(1-acryloylazetidin-3-yl)-2-(((5-(tert-butyl)-6-chloro-1H-indazol-3-yl)amino)methyl-d2)-1,4-dimethyl-1H-imidazole-5-carboxamide] | A (a binding rate of 80% or more is rated “A,”) |
| C=CC(=O)N1CC(NC(=O)c2c(Cl)nc(CNc3n[nH]c4cc(Cl)c(C(C)(C)C)cc34)n2CCCC)C1 [Example 87, N-(1-acryloylazetidin-3-yl)-1-butyl-2-(((5-(tert-butyl)-6-chloro-1H-indazol-3-yl)amino)methyl)-4-chloro-1H-imidazole-5-carboxamide] | A (a binding rate of 80% or more is rated “A,”) |
| C=CC(=O)N1CC(N(C)C(=O)c2c(C)nc(CNc3n[nH]c4cc(Cl)c(C(C)(C)C)cc34)n2C)C1 [Example 49, N-(1-acryloylazetidin-3-yl)-2-(((5-(tert-butyl)-6-chloro-1H-indazol-3-yl)amino)methyl)-N,1,4-trimethyl-1H-imidazole-5-carboxamide] | C (a binding rate of 40% or more and less than 60% is rated “C,”) |
| C=CC(=O)N1CC(NC(=O)c2c(Cl)nc(CNc3n[nH]c4cc(Cl)c(C(C)(C)C)cc34)n2CC(F)F)C1 [Example 100, N-(1-acryloylazetidin-3-yl)-2-(((5-(tert-butyl)-6-chloro-1H-indazol-3-yl)amino)methyl)-4-chloro-1-(2,2-difluoroethyl)-1H-imidazole-5-carboxamide] | A (a binding rate of 80% or more is rated “A,”) |
| C=CC(=O)N1C[C@H](NC(=O)c2c(C)nc(CNc3n[nH]c4cc(Cl)c(C(C)(C)C)cc34)n2C)[C@@H](OC)C1 [Example 63, N-((3S,4S)-1-acryloyl-4-methoxypyrrolidin-3-yl)-2-(((5-(tert-butyl)-6-chloro-1H-indazol-3-yl)amino)methyl)-1,4-dimethyl-1H-imidazole-5-carboxamide] | B (a binding rate of 60% or more and less than 80% is rated “B,”) |
| C=CC(=O)N1CC(NC(=O)c2c(C)nc(CNc3n[nH]c4cc(Cl)c(C(C)(C)C)cc34)n2C(C)CC)C1 (stereo not drawn) [Example 20, N-(1-acryloylazetidin-3-yl)-1-(sec-butyl)-2-(((5-(tert-butyl)-6-chloro-1H-indazol-3-yl)amino)methyl)-4-methyl-1H-imidazole-5-carboxamide] | A (a binding rate of 80% or more is rated “A,”) |
| C=CC(=O)N1C[C@@H](C)[C@@H](NC(=O)c2c(C)nc(CNc3n[nH]c4cc(Cl)c(C(C)(C)C)cc34)n2C)C1 [Example 55, N-((3R,4R)-1-acryloyl-4-methylpyrrolidin-3-yl)-2-(((5-(tert-butyl)-6-chloro-1H-indazol-3-yl)amino)methyl)-1,4-dimethyl-1H-imidazole-5-carboxamide] | A (a binding rate of 80% or more is rated “A,”) |
| C=CC(=O)N1CC(NC(=O)c2c(Cl)nc(CNc3n[nH]c4cc(Cl)c(C(C)(C)C)cc34)n2[C@H]2CCN(CC(F)F)C2)C1 [Example 115, (S)—N-(1-acryloylazetidin-3-yl)-2-(((5-(tert-butyl)-6-chloro-1H-indazol-3-yl)amino)methyl)-4-chloro-1-(1-(2,2-difluoroethyl)pyrrolidin-3-yl)-1H-imidazole-5-carboxamide] | A (a binding rate of 80% or more is rated “A,”) |
